Like-named read-outs stand apart in the source and are kept apart here. Positions of bridges follow the written chain, without caps; N, C: chain ends. Residues, ends and D or L forms follow the SMILES beside them.

Common to all, as to assay: cell-based
The target in one assay is hNav1.3 (Homo sapiens, UniProt Q9NY46). The note with it: IonWorks Quattro, read-out: IWQ Use Nav1.3. For orientation: Patch clamp records ionic current or voltage across a cell membrane.
A further assay addresses hNav1.7 (Homo sapiens, UniProt Q15858). The format is cell-based. The settings on record: read-out: IWQ Use Nav1.7.
The next assay deals with hNav1.5 (Homo sapiens, UniProt Q14524).
[1] abbreviates: IonWorks Quattro, Use, read-out: IWQ Use Nav1.5.

Chain of hNav1.5 (Q14524 whole entry, looked up): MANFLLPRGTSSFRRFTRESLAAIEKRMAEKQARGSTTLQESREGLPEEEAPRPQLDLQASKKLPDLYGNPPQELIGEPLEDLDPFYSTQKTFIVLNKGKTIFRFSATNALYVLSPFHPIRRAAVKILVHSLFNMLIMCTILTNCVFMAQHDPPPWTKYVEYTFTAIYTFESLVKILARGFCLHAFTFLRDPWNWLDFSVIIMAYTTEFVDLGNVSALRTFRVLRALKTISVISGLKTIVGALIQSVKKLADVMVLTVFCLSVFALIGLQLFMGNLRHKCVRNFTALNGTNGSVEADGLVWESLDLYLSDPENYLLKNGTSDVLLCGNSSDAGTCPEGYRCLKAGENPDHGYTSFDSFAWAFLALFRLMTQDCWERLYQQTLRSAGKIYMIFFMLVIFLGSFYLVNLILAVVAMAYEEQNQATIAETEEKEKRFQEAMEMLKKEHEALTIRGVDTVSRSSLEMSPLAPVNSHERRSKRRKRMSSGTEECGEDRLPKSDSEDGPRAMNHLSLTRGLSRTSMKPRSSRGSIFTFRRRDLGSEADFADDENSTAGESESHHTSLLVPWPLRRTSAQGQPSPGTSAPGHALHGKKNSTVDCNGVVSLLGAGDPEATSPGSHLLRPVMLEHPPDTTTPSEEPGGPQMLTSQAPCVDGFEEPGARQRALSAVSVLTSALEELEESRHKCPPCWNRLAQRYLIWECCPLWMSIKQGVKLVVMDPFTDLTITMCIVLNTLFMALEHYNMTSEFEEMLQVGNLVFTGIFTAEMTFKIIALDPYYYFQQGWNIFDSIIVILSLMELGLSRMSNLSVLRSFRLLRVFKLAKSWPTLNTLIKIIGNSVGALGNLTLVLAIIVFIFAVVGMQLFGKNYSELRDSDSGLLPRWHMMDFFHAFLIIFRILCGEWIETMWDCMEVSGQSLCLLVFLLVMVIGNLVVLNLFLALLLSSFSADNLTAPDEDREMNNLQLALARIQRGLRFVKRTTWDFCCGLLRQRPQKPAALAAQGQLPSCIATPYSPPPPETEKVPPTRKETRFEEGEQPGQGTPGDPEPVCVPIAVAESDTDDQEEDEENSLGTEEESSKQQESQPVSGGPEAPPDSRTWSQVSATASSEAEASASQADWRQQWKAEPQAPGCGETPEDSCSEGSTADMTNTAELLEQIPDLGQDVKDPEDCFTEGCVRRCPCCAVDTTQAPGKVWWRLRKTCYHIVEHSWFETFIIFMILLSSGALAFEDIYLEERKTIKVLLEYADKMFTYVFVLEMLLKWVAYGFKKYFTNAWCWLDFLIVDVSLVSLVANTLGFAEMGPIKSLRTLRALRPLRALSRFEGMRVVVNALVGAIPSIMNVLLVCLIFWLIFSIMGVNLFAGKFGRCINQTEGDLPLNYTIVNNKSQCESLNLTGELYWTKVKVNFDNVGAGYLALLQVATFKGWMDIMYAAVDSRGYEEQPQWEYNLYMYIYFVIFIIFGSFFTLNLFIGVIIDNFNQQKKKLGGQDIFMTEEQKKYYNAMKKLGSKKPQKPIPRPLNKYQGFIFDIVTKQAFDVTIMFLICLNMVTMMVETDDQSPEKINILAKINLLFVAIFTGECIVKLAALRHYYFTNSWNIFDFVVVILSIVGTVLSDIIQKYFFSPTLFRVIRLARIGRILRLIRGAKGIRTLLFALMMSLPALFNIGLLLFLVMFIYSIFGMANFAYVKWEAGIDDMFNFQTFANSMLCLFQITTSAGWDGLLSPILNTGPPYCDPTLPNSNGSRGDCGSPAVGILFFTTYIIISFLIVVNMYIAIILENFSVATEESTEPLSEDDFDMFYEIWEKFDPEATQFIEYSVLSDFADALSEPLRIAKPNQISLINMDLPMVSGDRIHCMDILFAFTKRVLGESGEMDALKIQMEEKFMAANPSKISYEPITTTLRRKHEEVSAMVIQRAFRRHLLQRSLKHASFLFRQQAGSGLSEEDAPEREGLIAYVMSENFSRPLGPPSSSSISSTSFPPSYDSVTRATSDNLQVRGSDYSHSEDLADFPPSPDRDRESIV
Chain of hNav1.7 (Q15858 whole entry, looked up): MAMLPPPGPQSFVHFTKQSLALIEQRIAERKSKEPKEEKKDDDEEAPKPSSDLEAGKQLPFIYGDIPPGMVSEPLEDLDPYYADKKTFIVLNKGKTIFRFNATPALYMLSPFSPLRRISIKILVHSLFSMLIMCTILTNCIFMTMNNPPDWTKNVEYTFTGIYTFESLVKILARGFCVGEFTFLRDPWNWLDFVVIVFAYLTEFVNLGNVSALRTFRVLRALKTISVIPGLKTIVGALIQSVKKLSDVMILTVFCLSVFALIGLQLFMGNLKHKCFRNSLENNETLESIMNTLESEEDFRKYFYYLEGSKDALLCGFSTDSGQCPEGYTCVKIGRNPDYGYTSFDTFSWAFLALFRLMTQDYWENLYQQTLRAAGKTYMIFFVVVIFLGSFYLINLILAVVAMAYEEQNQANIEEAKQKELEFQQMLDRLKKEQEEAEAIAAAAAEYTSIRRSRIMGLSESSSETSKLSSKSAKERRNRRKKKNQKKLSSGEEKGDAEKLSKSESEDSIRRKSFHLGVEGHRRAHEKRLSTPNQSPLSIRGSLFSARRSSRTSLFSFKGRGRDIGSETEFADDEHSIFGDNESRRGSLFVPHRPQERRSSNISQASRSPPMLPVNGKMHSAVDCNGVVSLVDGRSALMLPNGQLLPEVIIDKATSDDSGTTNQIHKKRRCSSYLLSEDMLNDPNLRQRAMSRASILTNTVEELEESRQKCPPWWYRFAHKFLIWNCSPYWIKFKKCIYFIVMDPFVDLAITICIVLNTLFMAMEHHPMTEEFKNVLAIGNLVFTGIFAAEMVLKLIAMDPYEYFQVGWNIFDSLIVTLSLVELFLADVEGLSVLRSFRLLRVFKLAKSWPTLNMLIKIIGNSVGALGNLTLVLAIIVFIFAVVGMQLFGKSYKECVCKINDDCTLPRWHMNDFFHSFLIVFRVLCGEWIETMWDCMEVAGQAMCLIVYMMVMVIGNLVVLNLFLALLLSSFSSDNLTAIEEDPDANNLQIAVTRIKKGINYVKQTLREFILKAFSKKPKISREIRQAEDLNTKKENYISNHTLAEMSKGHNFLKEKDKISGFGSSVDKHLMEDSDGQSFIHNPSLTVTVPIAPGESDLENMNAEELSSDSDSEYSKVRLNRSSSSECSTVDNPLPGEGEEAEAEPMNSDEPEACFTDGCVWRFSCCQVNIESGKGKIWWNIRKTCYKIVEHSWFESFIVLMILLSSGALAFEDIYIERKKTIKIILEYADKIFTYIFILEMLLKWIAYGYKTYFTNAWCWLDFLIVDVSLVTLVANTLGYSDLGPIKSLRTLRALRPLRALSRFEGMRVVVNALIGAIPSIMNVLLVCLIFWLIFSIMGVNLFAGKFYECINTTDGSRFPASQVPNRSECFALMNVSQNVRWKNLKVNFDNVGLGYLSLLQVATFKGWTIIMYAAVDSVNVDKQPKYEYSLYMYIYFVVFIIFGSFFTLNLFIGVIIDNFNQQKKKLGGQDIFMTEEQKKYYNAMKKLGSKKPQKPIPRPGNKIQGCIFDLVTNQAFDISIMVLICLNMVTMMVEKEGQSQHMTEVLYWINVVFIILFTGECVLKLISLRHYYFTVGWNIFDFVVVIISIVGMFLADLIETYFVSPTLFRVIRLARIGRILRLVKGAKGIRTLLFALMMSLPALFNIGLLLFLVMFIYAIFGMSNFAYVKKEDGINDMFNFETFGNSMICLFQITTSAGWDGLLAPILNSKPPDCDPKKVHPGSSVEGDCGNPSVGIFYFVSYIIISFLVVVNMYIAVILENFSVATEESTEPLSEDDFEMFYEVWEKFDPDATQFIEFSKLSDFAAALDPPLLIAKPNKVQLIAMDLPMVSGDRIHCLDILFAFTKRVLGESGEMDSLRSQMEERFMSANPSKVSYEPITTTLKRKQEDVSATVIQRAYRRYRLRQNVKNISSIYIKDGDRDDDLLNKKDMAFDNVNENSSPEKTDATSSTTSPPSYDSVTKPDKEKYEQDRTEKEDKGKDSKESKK

As to `CC[C@H](C)[C@@H]1NC(=O)[C@@H]2CSSC[C@@H]3NC(=O)[C@H](C(C)C)NC(=O)[C@H](CC(C)C)NC(=O)[C@H](CC(N)=O)NC(=O)[C@@H]4CCCN4C(=O)[C@H](Cc4c[nH]c5ccccc45)NC(=O)[C@H](CSSC[C@H](NC(=O)[C@@H](N)CC(=O)O)C(=O)N[C@@H](CC(C)C)C(=O)NCC(=O)N[C@@H](Cc4ccccc4)C(=O)N[C@@H](CCSC)C(=O)N[C@@H](CCCNC(=N)N)C(=O)N[C@@H](CCCCN)C(=O)N2)NC(=O)[C@H](CSSC[C@@H](C(=O)N[C@@H](CCCCN)C(=O)N[C@@H](Cc2ccc(O)cc2)C(=O)N[C@H](C(=O)N[C@@H](Cc2ccccc2)C(N)=O)C(C)C)NC(=O)[C@H](Cc2c[nH]c4ccccc24)NC(=O)[C@H](CCCCN)NC(=O)[C@H](Cc2c[nH]cn2)NC(=O)[C@H]([C@@H](C)O)NC(=O)[C@H](CCCNC(=N)N)NC(=O)[C@H](CO)NC3=O)NC(=O)[C@H](CCCCN)NC(=O)[C@H](CC(=O)O)NC(=O)[C@H](CC(N)=O)NC(=O)[C@H](CC(=O)O)NC(=O)[C@@H]2CCCN2C1=O` [compound 174] (H-DCLGFMRKCIPDNDKCCWPNLVCSRTHKWCKYVF-NH2; disulfide 2-17, 9-23, 16-30), the IC50 was found to be 0.08 µM on hNav1.3 (Use); 0.19 µM at hNav1.7 (IonWorks Quattro, Use); 14.7 µM on hNav1.5 (setting [1]).

Turning to `CC[C@H](C)[C@@H]1NC(=O)[C@@H]2CSSC[C@@H]3NC(=O)[C@H](C(C)C)NC(=O)[C@H](CC(C)C)NC(=O)[C@H](CC(N)=O)NC(=O)[C@@H]4CCCN4C(=O)[C@H](CCCNC(=N)N)NC(=O)[C@H](CSSC[C@H](NC(=O)[C@@H](N)CC(=O)O)C(=O)N[C@@H](CC(C)C)C(=O)NCC(=O)N[C@@H](Cc4ccccc4)C(=O)N[C@@H](CCSC)C(=O)N[C@@H](CCCNC(=N)N)C(=O)N[C@@H](CCCCN)C(=O)N2)NC(=O)[C@H](CSSC[C@@H](C(=O)N[C@@H](CCCCN)C(=O)N[C@@H](Cc2ccc(O)cc2)C(=O)N[C@H](C(=O)N[C@@H](Cc2ccccc2)C(N)=O)C(C)C)NC(=O)[C@H](Cc2c[nH]c4ccccc24)NC(=O)[C@H](CCCCN)NC(=O)[C@H](Cc2c[nH]cn2)NC(=O)[C@H]([C@@H](C)O)NC(=O)[C@H](CCCNC(=N)N)NC(=O)[C@H](CO)NC3=O)NC(=O)[C@H](CCC(N)=O)NC(=O)[C@H](CC(=O)O)NC(=O)[C@H](CC(N)=O)NC(=O)[C@H](CC(=O)O)NC(=O)[C@@H]2CCCN2C1=O` [compound 92] (H-DCLGFMRKCIPDNDQCCRPNLVCSRTHKWCKYVF-NH2; disulfide 2-17, 9-23, 16-30), the IC50 at hNav1.3 (Use) was 0.12 µM; at hNav1.7 (IonWorks Quattro, Use) it was 0.13 µM; on hNav1.5 (setting [1]) it was 7.6 µM.

`CC[C@H](C)[C@@H]1NC(=O)[C@@H]2CSSC[C@@H]3NC(=O)[C@H](C(C)C)NC(=O)[C@H](CC(C)C)NC(=O)[C@H](CC(N)=O)NC(=O)[C@@H]4CCCN4C(=O)[C@H](CCCNC(=NC)NC)NC(=O)[C@H](CSSC[C@H](NC(=O)[C@@H](N)CC(=O)O)C(=O)N[C@@H](CC(C)C)C(=O)NCC(=O)N[C@@H](Cc4ccccc4)C(=O)N[C@@H](CCSC)C(=O)N[C@@H](CCCNC(=N)N)C(=O)N[C@@H](CCCCN)C(=O)N2)NC(=O)[C@H](CSSC[C@@H](C(=O)N[C@@H](CCCCN)C(=O)N[C@@H](Cc2ccc(O)cc2)C(=O)N[C@H](C(=O)N[C@@H](Cc2ccccc2)C(N)=O)C(C)C)NC(=O)[C@H](Cc2c[nH]c4ccccc24)NC(=O)[C@H](CCCCN)NC(=O)[C@H](Cc2c[nH]cn2)NC(=O)[C@H]([C@@H](C)O)NC(=O)[C@H](CCCNC(=N)N)NC(=O)[C@H](CO)NC3=O)NC(=O)[C@H](CCCCN)NC(=O)[C@H](CC(=O)O)NC(=O)[C@H](CC(N)=O)NC(=O)[C@H](CC(=O)O)NC(=O)[C@@H]2CCCN2C1=O` [compound 315]: the IC50 at hNav1.3 (Use) is 0.1 µM; at hNav1.7 it was 0.14 µM; against hNav1.5 (IWQ Use Nav1.5 (μM)) it was 10.5 µM.

For the compound `CC[C@H](C)[C@@H]1NC(=O)[C@@H]2CSSC[C@@H]3NC(=O)[C@H](C(C)C)NC(=O)[C@H](CC(C)C)NC(=O)[C@H](CC(N)=O)NC(=O)[C@@H]4CCCN4C(=O)[C@H](CCCNC(=N)N)NC(=O)[C@H](CSSC[C@H](NC(=O)[C@@H](N)CC(=O)O)C(=O)N[C@@H](CC(C)C)C(=O)NCC(=O)N[C@@H](Cc4ccccc4)C(=O)N[C@@H](CCCCN)C(=O)N[C@@H](CCCNC(=N)N)C(=O)N[C@@H](CCCCN)C(=O)N2)NC(=O)[C@H](CSSC[C@@H](C(=O)N[C@@H](CCCCN)C(=O)N[C@@H](Cc2ccc(O)cc2)C(=O)N[C@H](C(=O)N[C@@H](Cc2ccccc2)C(N)=O)C(C)C)NC(=O)[C@H](Cc2c[nH]c4ccccc24)NC(=O)[C@H](CCCCN)NC(=O)[C@H](Cc2cnc[nH]2)NC(=O)[C@H]([C@@H](C)O)NC(=O)[C@H](CCCNC(=N)N)NC(=O)[C@H](CO)NC3=O)NC(=O)[C@H](CCCCN)NC(=O)[C@H](CC(=O)O)NC(=O)[C@H](CC(N)=O)NC(=O)[C@H](CC(=O)O)NC(=O)[C@@H]2CCCN2C1=O` [SEQ ID NO: 154] (H-DCLGFKRKCIPDNDKCCRPNLVCSRTHKWCKYVF-NH2; disulfide 2-17, 9-23, 16-30), the IC50 at hNav1.3 (clamped to −110 mV, depolarized to −10 mV, 5 min after compound, n=2) is 8.49 µM; on hNav1.7 (IonWorks Quattro, clamped to −110 mV, depolarized to −10 mV, 5 min after compound, n=2), 14.5 µM; at hNav1.5 (IonWorks Quattro, clamped to −110 mV, depolarized to −10 mV, 5 min after compound, n=2, read-out: IWQ Use Nav1.5), 13.9 µM.

For the compound `CSCC[C@@H]1NC(=O)[C@H]([C@@H](C)O)NC(=O)CNC(=O)[C@H](CC(C)C)NC(=O)[C@@H](NC(=O)[C@@H](N)CC(=O)O)CSSC[C@@H]2NC(=O)[C@@H]3CSSC[C@@H](C(=O)N[C@@H](CCCCN)C(=O)N[C@@H](Cc4ccc(O)cc4)C(=O)N[C@H](C(=O)N[C@@H](Cc4ccccc4)C(N)=O)C(C)C)NC(=O)[C@H](Cc4c[nH]c5ccccc45)NC(=O)[C@H](CCCCN)NC(=O)[C@H](Cc4c[nH]cn4)NC(=O)[C@H]([C@@H](C)O)NC(=O)[C@H](CCCNC(=N)N)NC(=O)[C@H](CO)NC(=O)[C@H](CSSC[C@H](NC(=O)[C@H](CCCCN)NC(=O)[C@H](CCCNC(=N)N)NC1=O)C(=O)N[C@@H](CC(=O)O)C(=O)N1CCC[C@H]1C(=O)N[C@@H](CC(=O)O)C(=O)N[C@@H](CC(N)=O)C(=O)N[C@@H](CC(=O)O)C(=O)N[C@@H](CCCCN)C(=O)N3)NC(=O)[C@H](C(C)C)NC(=O)[C@H](CC(C)C)NC(=O)[C@H](CC(N)=O)NC(=O)[C@@H]1CCCN1C(=O)[C@H](CCCNC(=N)N)NC2=O` [compound 714] (H-DCLGTMRKCDPDNDKCCRPNLVCSRTHKWCKYVF-NH2; disulfide 2-17, 9-23, 16-30), the IC50 at hNav1.3 (use-dependent protocol, hNav1.3) is greater than 5 µM; at hNav1.7 (IonWorks Quattro, use-dependent protocol, hNav1.7), 1.6 µM; at hNav1.5 (IonWorks Quattro, use-dependent protocol, hNav1.5, read-out: IWQ Use Nav1.5) it was 48 µM.

In the case of `CC[C@H](C)[C@@H]1NC(=O)[C@@H]2CSSC[C@@H]3NC(=O)[C@H](C(C)C)NC(=O)[C@H](CC(C)C)NC(=O)[C@H](CC(N)=O)NC(=O)[C@@H]4CCCN4C(=O)[C@H](CCCNC(=N)N)NC(=O)[C@H](CSSC[C@H](NC(=O)[C@@H](N)CC(=O)O)C(=O)N[C@@H](CC(C)C)C(=O)NCC(=O)N[C@@H](Cc4ccccc4)C(=O)N[C@@H](CCSC)C(=O)N[C@@H](CCCNC(=N)N)C(=O)N[C@@H](CCCCN)C(=O)N2)NC(=O)[C@H](CSSC[C@@H](C(=O)N[C@@H](CCCCN)C(=O)N[C@@H](Cc2ccc(O)cc2)C(=O)N[C@H](C(=O)N[C@@H](Cc2ccccc2)C(N)=O)C(C)C)NC(=O)[C@H](Cc2c[nH]c4ccccc24)NC(=O)[C@H](CCCCN)NC(=O)[C@H](Cc2c[nH]cn2)NC(=O)[C@H]([C@@H](C)O)NC(=O)[C@H](CCCNC(=N)N)NC(=O)[C@H](CO)NC3=O)NC(=O)[C@H](CCCCN)NC(=O)[C@H](CC(=O)O)NC(=O)[C@H](CC(N)=O)NC(=O)[C@H](CC(C)C)NC(=O)[C@@H]2CCCN2C1=O` [compound 193] (H-DCLGFMRKCIPLNDKCCRPNLVCSRTHKWCKYVF-NH2; disulfide 2-17, 9-23, 16-30), the IC50 stood at 0.071 µM at hNav1.3 (Use); 0.08 µM at hNav1.7 (IonWorks Quattro, Use); 6.83 µM at hNav1.5 (setting [1]).

Take `CC[C@H](C)[C@@H]1NC(=O)[C@@H]2CSSC[C@@H]3NC(=O)[C@H](C(C)C)NC(=O)[C@H](CC(C)C)NC(=O)[C@H](CC(N)=O)NC(=O)[C@@H]4CCCN4C(=O)[C@H](CCCNC(=N)N)NC(=O)[C@H](CSSC[C@H](NC(=O)[C@@H](N)CC(=O)O)C(=O)N[C@@H](CC(C)C)C(=O)NCC(=O)N[C@@H](Cc4ccccc4)C(=O)N[C@@H](CCSC)C(=O)N[C@@H](CCCNC(=N)N)C(=O)N[C@@H](CCCCN)C(=O)N2)NC(=O)[C@H](CSSC[C@@H](C(=O)N[C@@H](CCCCN)C(=O)N[C@@H](CC(N)=O)C(=O)N[C@H](C(=O)N[C@@H](Cc2ccccc2)C(N)=O)C(C)C)NC(=O)[C@H](Cc2c[nH]c4ccccc24)NC(=O)[C@H](CCCCN)NC(=O)[C@H](Cc2c[nH]cn2)NC(=O)[C@H]([C@@H](C)O)NC(=O)[C@H](CCCNC(=N)N)NC(=O)[C@H](CO)NC3=O)NC(=O)[C@H](CCCCN)NC(=O)[C@H](CC(=O)O)NC(=O)[C@H](CC(N)=O)NC(=O)[C@H](CC(=O)O)NC(=O)[C@@H]2CCCN2C1=O` [compound 379] (H-DCLGFMRKCIPDNDKCCRPNLVCSRTHKWCKNVF-NH2; disulfide 2-17, 9-23, 16-30): the IC50 worked out at 6.85 µM at hNav1.3 (Table 25, use, […]); 4.86 µM on hNav1.7 (Table 25, IonWorks Quattro, use, […]); 10.6 µM on hNav1.5 (Table 25, IonWorks Quattro, use, […], read-out: IWQ Use Nav1.5).

The values are drawn from patent publication US9340590B2 (priority 2011, dated 2016).
